In US20230165836A1, “ALPHA-2 ADRENERGIC RECEPTOR AGONISTS FOR THE TREATMENT OF CANCER” (UNIVERSITÉ CATHOLIQUE DE LOUVAIN, priority 2020, published 2023):
Entries after “also recorded” stand apart in the source; their conditions may differ. Like-named read-outs stand apart in the source and are kept apart here.

What was measured:
MC38 colon carcinomas = test: MC38 colon carcinoma in wildtype mice; format: in vivo, C57BL/6 Wildtype mice; conditions: 5 mg/kg, i.p. daily from tumor size around 50 mm^3
Protocol: C57BL/6 Wildtype or C57BL/6 Adra2a KO mice bearing MC38 colon carcinomas received daily injections of vehicle control (PBS), clonidine (5 mg/kg, i.p.) or guanabenz (5 mg/kg, i.p.), when the tumor size was around 50 mm^3, until the day of sacrifice.

CT26 colon carcinomas = test: CT26 colon carcinoma model, daily i.p. treatment, tumor volume; format: in vivo, BALB/c mice; conditions: CT26 in BALB/c mice; 5 mg/kg, i.p. daily from tumor size around 50 mm^3 until sacrifice
Protocol: Mice received a daily intra-peritoneal injection of guanabenz (5 mg/kg) or vehicle (PBS) from the day of randomization (and the day of ACT when applicable) until the day of sacrifice. For the co-administration of adrenergic receptor agonist and antagonist, BALB/c mice bearing CT26 colon carcinomas received daily injections of vehicle control, guanabenz (5 mg/kg, i.p.), or guanabenz (5 mg/kg, i.p.) plus yohimbine (10 mg/kg, i.p.), when the tumor size was around 50 mm^3, until the day of sacrifice.
[…] mice were injected subcutaneously with 2×10^6 CT26 colon tumor cells at an age of 6 to 8 weeks. […] For evaluation of yohimbine on the effect of clonidine and guanabenz, the mice were randomized into different groups when tumors size arrived around 100 mm^3 and received daily injections of guanabenz (5 mg/kg, i.p.), yohimbine (10 mg/kg), a mix of guanabenz (5 mg/kg, i.p.) and yohimbine (10 mg/kg, i.p.), clonidine (5 mg/kg, i.p.), a mix of clonidine (5 mg/kg, i.p.) and yohimbine (10 mg/kg, i.p.) or vehicle control. Tumor size was measured every 2 days and mice were sacrificed when the tumor in control group reached 1,000 mm^3.

mammary gland tumor = test: Tumor model: mammary gland tumor; format: in vivo, mice; conditions: mammary gland tumor (FIG. 22A, 23A)
From the text: (§1) FIGS. 23A-H is a set of curves showing the tumor growth of mice treated with PBS (Control, circles) or guanabenz (GBZ, triangles) in different tumor models: such as mammary gland tumor (FIG. 23A), hepatocellular carcinoma (FIG. 23B), T cell lymphoma (FIG. 23C), lung cancer (FIG. 23D), myeloma (FIG. 23E), mammary adenocarcinoma (FIG. 23F), renal cancer (FIG. 23G) and fibrosarcoma (FIG. 23H).

myeloma = test: Tumor model: myeloma; format: in vivo, mice; conditions: myeloma (FIG. 22E, 23E)
From the text: as §1

hepatocellular carcinoma = test: Tumor model: hepatocellular carcinoma; format: in vivo, mice; conditions: hepatocellular carcinoma (FIG. 22B, 23B)
From the text: as §1

lung cancer = test: Tumor model: lung cancer; format: in vivo, mice; conditions: lung cancer (FIG. 22D, 23D)
From the text: as §1

renal cancer = test: Tumor model: renal cancer; format: in vivo, mice; conditions: renal cancer (FIG. 22G, 23G)
From the text: as §1

[1] = tested on: human LS411N ovarian cancer; test: LS411N xenograft with adoptive transfer of allogeneic human PBMC; format: in vivo; conditions: human allogenic PBMC transferred at tumor size 100 mm^3
Protocol: Adoptive transfer of human PBMC was performed when tumor size reaches 100 mm^3.

[2] = tested on: SKOV3 human ovarian tumor cells; conditions: SKOV3 in NSG mice
Protocol: SKOV3 human ovarian tumor cells were injected subcutaneously in immune deficient NSG mice. When tumors were palpable, tumor-bearing mice received adoptive cell transfer of 3×10^6 of allogeneic human PBMC (i.v.) and were injected daily with clonidine (5 mg/kg, i.p.) or vehicle (PBS, i.p.) until sacrifice.

TiRP melanoma = TiRP melanoma model, monotherapy; format: in vivo; conditions: TiRP+/+ mice; 5 mg/kg, i.p. daily from tumor size around 250 mm^3
Protocol: FIGS. 14A-B is a set of curves showing the tumor growth (melanoma) in TiRP+/+ mice that have received daily injections of guanfacine (5 mg/kg, i.p. triangles; FIG. 14A), clonidine (5 mg/kg, i.p., circles; FIG. 14B), or control (PBS, i.p., squares), when the tumor size was around 250 mm^3 until sacrifice.
TiRP mice have been created by crossing Ink4a/Are^flox/flox mice with mice carrying a transgenic construct controlled by the tyrosinase promoter and driving the expression of H-Ras ^12V and Trapl a which encodes a MAGE-type tumor antigen P1A; the promoter is separated from the coding region by a stop cassette made of a floxed self-deleting CreER (Huijbers et al., 2006, Cancer Res 66, 3278-3286). Those mice were backcrossed to a B10.D2 background and bred to homozygosity. TCRP1A mice heterozygous for the H-2Ld/P1A35-43-specific TCR transgene were kept on the B10.D2;Rag1^−/− background (Shanker et al., 2004, J Immunol 172, 5069-5077). […]
A fresh solution of 40H-Tamoxifen was prepared by dissolving 40H-Tamoxifen (Imaginechem®) in 100% ethanol and mineral oil (ratio 1:9) followed by 30 min sonication, and injected subcutaneously (2 mg/200 uL per mouse) in the neck area of gender-matched 7 weeks old TiRP mice. Tumor appearance was monitored daily and tumors were measured three times/week. Tumor volume (in mm^3) was calculated by the following formula: Volume=width^2×length/2.

[3] = tested on: myelofibrosis induced by romiplostim; conditions: romiplostim 1 mg/kg s.c. days 1, 8, 15, 5 mg/kg i.p. daily for two weeks from day 8, wildtype mice
Protocol: 8-week female C57BL/6 J wild-type and Adra2a KO mice were administered saline or 1 mg/kg of romiplostim by a subcutaneous injection into the neck skin on days 1, 8 and 15. Clonidine or guanabenz were administrated i.p. at a dose of 5 mg/kg daily for two weeks starting from day 8. Mice were dissected on day 22 and peripheral blood was drawn by cardiac puncture, the platelet concentration was measured by Cell Counter Analyzer MS9-5V.

Compound: Clc1cccc(Cl)c1N=C1NCCN1 [clonidine]
- tumor growth (MC38 colon carcinomas): significant tumor inhibition
- tumor growth (tumor volume) (CT26 colon carcinomas): promotes a decrease of the tumor volume; also recorded: strongly inhibited CT26 tumor growth
- tumor growth (mammary gland tumor): strong tumor inhibition
- tumor growth (myeloma): strong tumor inhibition
- tumor growth (hepatocellular carcinoma): strong tumor inhibition
- tumor growth (lung cancer): strong tumor inhibition
- tumor growth (renal cancer): strong tumor inhibition
- tumor growth [1]: significant tumor inhibition
- anti-tumor efficacy of human PBMC ([2]; 3×10^6 PBMC i.v., 5 mg/kg i.p. daily): strongly increased the anti-tumor efficacy of human PBMC
- expression of CD44 on tumor-infiltrated CD8+T cells ([2]; PBMC, 5 mg/kg i.p.): increased expression of CD44
- infiltration of CD4+ human T cells into tumors ([2]; PBMC, 5 mg/kg i.p.): increased
- infiltration of CD8+ human T cells into tumors ([2]; PBMC, 5 mg/kg i.p.): increased
- tumor growth, compared to ACT alone ([2]; with ACT, 5 mg/kg i.p. daily): significantly decreased
- tumor weight on the day of sacrifice, compared to ACT alone ([2]; with ACT, 5 mg/kg i.p. daily): significantly decreased
- tumor volume, monotherapy (TiRP melanoma): efficient in decreasing the tumor volume
- platelet (PLT) counts [3]: significantly reduces the platelet (PLT) counts
- platelet (PLT) counts ([3]; listed as Clonidine): reduces the platelet count
